Common to all, as to experiment: NCI-60 cell line screen, 48 h
Experiment [1] concerns HT29 colon.
The subject of experiment [2] is OVCAR-8 ovarian.
In experiment [3] the test system is RPMI-8226 leukemia.
Experiment [4] deals with NCI-H460 lung.
In experiment [5] the test system is LOX IMVI melanoma.
For experiment [6], the system named is HS 578T breast.
In experiment [7] the test system is HL-60(TB) leukemia.
The subject of experiment [8] is MDA-MB-231 breast.
Experiment [9] has as its system K-562 leukemia.
Experiment [10] concerns HCT-116 colon.
The subject of experiment [11] is SR leukemia.
Experiment [12] deals with MOLT-4 leukemia.
In experiment [13] the test system is CCRF-CEM leukemia.
Experiment [14] deals with RXF 393 renal.
In experiment [15] the test system is DU-145 prostate.
The test system of experiment [16] is TK-10 renal.
The test system of experiment [17] is SW-620 colon.

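Values below derive from 48-hour exposures of cells grown in 96-well plates, with endpoints linearly interpolated between the two concentrations bracketing the appropriate inhibition level. GI50 marks 50% less growth. The concentration for full growth arrest is given as TGI.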

In the case of `COc1cc(/C=C/C(=O)c2c(C)nc3ccccc3c2/C=C/c2ccccc2)cc(OC)c1OC`, the GI50 in [1] is 1870 nM; in [2], 1780 nM; in [3] it was 2210 nM; in experiment [4], 1860 nM; in experiment [5], 1420 nM; in experiment [6], 4200 nM. The GI50 is 1630 nM in [7]; 2150 nM in experiment [8]; 827 nM in experiment [9]; 514 nM in experiment [10]; 1140 nM in experiment [11]; 2210 nM in experiment [12]. Moreover, in [13], the GI50 was 2090 nM. The TGI in [1] is more than 100000 nM; in [2], more than 100000 nM; in experiment [3] it was more than 100000 nM; in experiment [4] it was 4960 nM; in experiment [5], 2780 nM; in experiment [6], more than 100000 nM. The TGI in [7] is 6000 nM; in [8], more than 100000 nM; in experiment [9], more than 100000 nM; in experiment [10], 1910 nM; in experiment [11], 6540 nM; in experiment [12] it was 8610 nM. The molecule also had a TGI in experiment [13] of more than 100000 nM.

As for `CC(C)c1ccc(Cn2ccc3c4c(N)nc(NC5CC5)nc4ccc32)cc1`, the GI50 was 172 nM in experiment [14]; 198 nM in [4]; 399 nM in [15]; 1230 nM in [16]; 326 nM in experiment [17]. The TGI in experiment [14] came out at 580 nM; in [4], 1070 nM; in experiment [15], 1380 nM; in experiment [16], 2570 nM; in [17], 1320 nM.

For the origin of these results see PubChem BioAssay (NCI).
